Entries after “also recorded” stand apart in the source; their conditions may differ. Like-named read-outs stand apart in the source and are kept apart here.
How the values were obtained:
[1] = test system: differentiated HT22 cells; assay: cells; assay type: cell-based; details: for EC50: Mus musculus, HT-22, differentiated HT22 cells pre-treated with 5 mM L-glutamate, cell viability; for neuroprotective activity compared with cA: comparison of analogs
Method: (§1) Cytotoxicity of compounds was tested by MTT assay. Cells were grown in DMEM (Gibco) with 10% FBS and 1% penicillin-streptomycin at 37° C. with 5% CO2. In total, 5×10^3 cells were seeded in each well of 96-well plates and cultured for 24 hours. Then cells were treated with different concentrations of compounds dissolved in DMSO for another 24 hours. After incubating with 20 μl of MTT (5 mg/mL) for each well at 37° C. for another four hours, 100 μl of DMSO was added to dissolve formazan. Absorbance was measured using a Multiskan™ FC microplate photometer at 570 nm. IC50 data were analyzed with GraphPad Prism software.
Cultured HT22 cells were differentiated by applying 10 μM retinoic acid (Sigma-Aldrich, R2625-50MG) and 500 μM cAMP (Sigma-Aldrich, A6885) in DEME medium supplied with 0.5% FBS (differentiation medium) and incubated 48 hours before adding other treatments. 5 mM L-glutamate acid was applied to the original differentiation medium for further 24-hours incubation. Cell viability was measured by MTT assay described above.
In the C9orf72 associated ALS/FTD, the G4C2 HRE make motor neurons more vulnerable to aberrant neuron excitation^43. Meanwhile, the hyperactivation of glutamate receptors drives a toxic level of neuronal activity, promoting the non-ATG (RAN) translation of G4C2 repeat-associated DPR proteins^44, leading to further toxicity of motor neurons. Thus, we would like to test our compounds in a glutamate (E)-induced excitotoxicity cell model.

[2] = test system: Neuro2a cells transfected with DNA (G4C2)29; assay: Cell viability of Neuro2a cells transfected with DNA (G4C2)29 (C9orf72 ALS/FTD cell model); assay type: cell-based; details: for effect on cell viability of (G4C2)29-transfected Neuro2a cells: 1 μg/ml; for viability at 1 µg/mL: Mus musculus, N2a, read-out: cell viability in (G4C2)29-cells
Method: as §1
DNA constructs were transfected to neuronal Neuro2a cell lines using Lipofectamine 2000 (Thermo Fisher Scientific, 11668019). 4 to 6 hours after transfection, fresh culture medium was used to replace the transfection medium, and cells were incubated for another 48 hours to allow recovery and construct expression.

Tau-R3 = target: T1, Tau-R3 (Homo sapiens, UniProt P10636); assay: Thioflavin T (ThT) fluorescent tau-R3 aggregation assay; assay type: biochemical; details: 20 μM Tau-R3, 10 μM heparin, read-out: IC50 of Tau-R3 aggregation inhibition (converted)
T1 construct: Tau-R3 protein was synthesized and purchased from ChinaPeptides Co., Ltd; purchased ChinaPeptides Co., Ltd; host or cells: chemical synthesis
Method: Tau-R3 protein was synthesized and purchased from ChinaPeptides Co., Ltd. ThT (ab120751, 1 mM) solution was freshly prepared in 50 mM Tris-HCl buffer (pH 7.4) and passed through a 0.45 μm pore size filter to remove insoluble particles before use. Tau-R3 (20 μM) was incubated with 20 μM ThT and 10 μM heparin in the presence or absence of cA, cB and cC. Samples in 200 μL were added to 96-well plates and incubated at 37° C. for 24-48 hours. ThT fluorescence intensity was recorded using a microplate reader with 440/480 nm excitation/emission filters at different time points. Non-linear regression analysis was performed to fit the boltzmann sigmoidal.
In the C9orf72 ALS/FTD, there is a strong genetic association between the microtubule-binding protein, tau and the G4C2 HRE. […] The co-expression of Tau and G4C2 repeats produces a synergistic deterioration of the neurodegeneration phenotype of ALS/FTD^46. Considering the tight correlation of Tau aggregation with the ALS/FTD pathogenesis, we tested our compounds in a non-cell-based Tau-R3 aggregation inhibition assay. […] Moreover, we conducted high magnification TEM imaging to characterize the morphological changes of Tau-R3 fibrils with cA, cB and cC treatments. […] Furthermore, the misfolding of tau protein into filaments in neurons of the central nervous system can be found in various neurodegenerative diseases, such as Alzheimer's disease et al. Therefore, the inhibition on tau aggregation represented a potential of cA and its derivatives in targeting multiple other neurodegenerative diseases more than ALS.

red blood cells = assay: Hemolysis assay; assay type: cell-based; details: 250, 500, 1000 μg/mL; 2% rabbit red blood cells; 37° C., 1 hour
Method: Hemolytic activity was determined with 2% fresh red blood cells from a healthy rabbit. Blood cells were obtained and washed with PBS buffer four to five times and centrifuged at 1500 rpm for 10 mins until the upper phase became clear. Compounds were diluted with PBS to final concentrations of 1000, 500, 250 μg/mL, added to the same volume of 2% red blood cells and incubated at 37° C. for 1 hour. Samples were centrifuged at 10,000 rpm for 5 mins, and supernatants were added into 96-well plates and measured at 570 nm with a Thermo Scientific Multiskan FC multiplate photometer (Thermo Scientific™, USA). An aliquot of 10% Triton X-100 was used as the positive control, and 1% DMSO dissolved in PBS was used as the negative control.

[3] = test system: DNA (G4C2)4 (SEQ ID NO: 5) G4; assay: 1D 1H-NMR titration of DNA (G4C2)4 G4; assay type: binding; details: for binding affinity order according to NMR titration: DNA (G4C2)4 G-quadruplex and hnRNP H, FIGS. 3C-3E; for binding to DNA (G4C2)4 G4 by NMR titration: G4:compound ratio 1:1 to 1:10
Method: Single […] were purchased from Integrated DNA Technologies (IDT) and Takara. Single-strand DNA/RNA sample at 100 μM was then annealed by heating up to 95° C. for 15 mins, and slowly cooled to room temperature in the annealing buffer (70 mM KCl, 20 mM potassium phosphate (pH 7.0)) for overnight. The final NMR samples contained 0.1 mM DNA or RNA in 70 mM KCl and 20 mM potassium phosphate buffer (pH 7.0).
The 1D ^1H-NMR spectra were performed at 25° C. All compounds were dissolved in isotope-labeled d6-DMSO (Sigma-Aldrich) at about 50 mM concentration, working as stock solutions. To avoid chemical shift changes of DNA/RNA G4 resulted from d6-DMSO addition, […] d6-DMSO was added into 500 μL of 0.1 mM DNA/RNA G4 solution in the NMR buffer (20 mM potassium phosphate buffer and 70 mM KCl, pH 7.0, 10% D2O) and then 1D ^1H-NMR spectrum was recorded as a reference. During NMR titration experiments of adding each compound into the DNA/RNA G4 solution, the maximal volume of 10 μL of each compound in d6-DMSO solution was regarded as a final data point.
We next confirmed the binding of cA and DNA (G4C2)4 (SEQ ID NO: 5) G4 by NMR titration experiments.

T1 sequence (P10636 623-653 limits assumed): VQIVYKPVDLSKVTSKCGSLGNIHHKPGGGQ

SMILES | cytotoxicity (structure-activity summary) [1] | EC50 [1] [µM] | neuroprotective activity compared with cA [1] | effect on cell viability of (G4C2)29-transfected Neuro2a cells [2] | IC50 (Tau-R3) [µM] | hemolytic activity (red blood cells) | binding affinity order according to NMR titration [3] | binding to DNA (G4C2)4 G4 by NMR titration [3] | viability at 1 µg/mL [2] [%] | viability at 1 µg/mL ([2]; 1 μg/mL, model group 20%) [%]
COc1c2c(c(O)c3c(=O)c4cccc(O[C@@H]5OC(C(=O)O)=C[C@H](O)[C@H]5O)c4oc13)-c1c(cc(CC(C)=O)c(C(=O)O)c1O)CC2 [cB, chrexanthomycin B] | potent cytotoxicity | 11.1 | worse than cA | made it worse; also recorded: even worse than the model group | 2.05 | significant hemolytic activity starting at 500 μg/ml; also recorded: significant hemolytic activity starting at 0.5 mg/ml | cC>cA>cB>cF | proved to bind | – | –
CC(=O)Cc1cc2c(c(O)c1C(=O)O)-c1c(c(O)c3oc4c(O[C@@H]5O[C@H](C(=O)O)[C@@H](O)[C@H](O)[C@H]5O)cccc4c(=O)c3c1O)CC2 [cC, chrexanthomycin C] | – | – | better neuroprotective activity than cA | partially increased the cell viability | 5.76 | no hemolytic activity even at the concentration of 1000 μg/ml; also recorded: no hemolytic activity with a pretty high concentration of 1 mg/ml | cC>cA>cB>cF | proved to bind | 40 | –
CC(=O)Cc1cc2c(c(O)c1C(=O)O)-c1c(c(O)c3oc4c(O[C@@H]5OC(C(=O)O)=C[C@H](O)[C@H]5O)cccc4c(=O)c3c1O)CC2 [cA, chrexanthomycin A] | – | 0.31 | – | partially increased the cell viability | ~0.518 | no hemolytic activity even at the concentration of 1000 μg/ml; also recorded: no hemolytic activity with a pretty high concentration of 1 mg/ml | cC>cA>cB>cF | apparent chemical shift changes | – | 30

Reference: patent publication US11820762B2, “Compounds as potential therapeutic agents targeting various neurodegenerative diseases” (The Hong Kong University of Science and Technology, priority 2020, dated 2023)
